The values below come from US20140135270A1, “MACROCYCLIC COMPOUNDS FOR INHIBITION OF INHIBITORS OF APOPTOSIS” (Ensemble Therapeutics Corp., priority 2012, published 2014).

One assay deals with T1, His-BIR3 (241-356, XIAP) (Homo sapiens, UniProt P98170).
T1 construct: additions of His-BIR3 (241-356, XIAP), fluorescein labeled SMAC peptide
The assay can be described thus: XIAP-BIR3/SMAC Homogeneous Time Resolved Fluorescence (HTRF) Assay. Conditions: fluorescein labeled SMAC peptide. The class given is binding. A general note: Time-resolved FRET reads energy transfer from a long-lived donor to a nearby acceptor.

Assay [1] concerns the target T2, His-BIR2-3 (125-356, C202A/C213G, XIAP) (Homo sapiens, UniProt P98170, C202A/C213G).
T2 construct: additions of His-BIR2-3 (125-356, C202A/C213G, XIAP), fluorescein labeled dimeric SMAC peptide
The assay can be described thus: XIAP-BIR2-3 Dimeric SMAC Peptide Homogeneous Time Resolved Fluorescence (HTRF) Assay. Conditions: fluorescein labeled dimeric SMAC peptide. In kind it is binding.

As usually defined, the IC50 is the concentration that inhibits the measured activity by half. Low readings indicate greater potency in that assay, high ones weaker potency in that assay.

T1 sequence (P98170 241-356): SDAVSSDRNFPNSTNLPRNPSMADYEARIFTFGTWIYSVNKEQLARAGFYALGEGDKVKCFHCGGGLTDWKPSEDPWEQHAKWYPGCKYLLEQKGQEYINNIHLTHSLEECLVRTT
T2 sequence (P98170 125-356 C202A/C213G): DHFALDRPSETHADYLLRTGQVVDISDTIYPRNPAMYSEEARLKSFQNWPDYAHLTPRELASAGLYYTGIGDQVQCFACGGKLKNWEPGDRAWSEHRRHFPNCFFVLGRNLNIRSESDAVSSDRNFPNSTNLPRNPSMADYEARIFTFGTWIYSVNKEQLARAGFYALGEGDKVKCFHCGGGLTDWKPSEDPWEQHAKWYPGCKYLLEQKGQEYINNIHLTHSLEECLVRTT

On to `CC(C)[C@H](NC(=O)[C@H](C)N(C)C(=O)OC(C)(C)C)C(=O)N[C@H]1C/C=C/CC[C@@H](C(=O)O)NC(=O)[C@H](Cc2ccccc2)NC(=O)[C@@H]2CN(CCNC(=O)CC[C@@H](C(=O)OC(C)(C)C)NC(=O)[C@H](Cc3ccccc3)NC1=O)CCN2C(=O)[C@@H](NC(=O)[C@H](C)N(C)C(=O)OC(C)(C)C)C(C)C` [Example 82], for which the IC50 is 1100 nM against His-BIR3 (241-356, XIAP) and 2090 nM in assay [1].
On the same counts, the results for `CN[C@@H](C)C(=O)N[C@H](C(=O)N1C[C@@H]2C[C@H]1C(=O)N[C@@H](Cc1ccc3ccccc3c1)C(=O)N[C@H](C(=O)O)Cc1ccc(cc1)OC/C=C/CO[C@H]1C[C@@H](C(=O)N3Cc4ccccc4C[C@H]3C(=O)N[C@H](C(=O)NS(=O)(=O)C3CC3)Cc3ccc(cc3)OCc3cn2nn3)N(C(=O)[C@@H](NC(=O)[C@H](C)NC)C(C)(C)C)C1)C(C)(C)C` [Example 105] are 49.7 nM and 13.2 nM.
On the same counts, the results for `CN[C@@H](C)C(=O)N[C@@H](CCC(=O)O)C(=O)N1C[C@@H]2C[C@H]1C(=O)N[C@@H](Cc1ccc3ccccc3c1)C(=O)N[C@H](C(=O)O)Cc1ccc(cc1)C(=O)N[C@H]1C[C@@H](C(=O)N[C@@H](Cc3ccc4ccccc4c3)C(=O)N[C@H](C(=O)O)Cc3ccc(cc3)OC/C=C/CO2)N(C(=O)[C@@H](NC(=O)[C@H](C)NC)C(C)(C)C)C1` [Example 63] are 17.9 nM and 2.7 nM.
The matching figures for `CN[C@@H](C)C(=O)NC(C(=O)N1C[C@H]2CCCCOc3ccc(cc3)C[C@@H](c3n[nH]c(=O)o3)NC(=O)C(Cc3ccc4ccccc4c3)NC(=O)[C@@H]3C[C@@H](CN3C(=O)[C@@H](NC(=O)[C@H](C)NC)C(C)(C)C)n3cc(nn3)COc3ccc(cc3)C[C@@H](C(=O)O)NC(=O)[C@H](Cc3ccc4ccccc4c3)NC(=O)[C@@H]1C2)C(C)(C)C` (stereo partly drawn) [Example 92]: 2.9 nM and 0.9 nM.
Consider `CN[C@@H](C)C(=O)N[C@H](C(=O)N[C@H]1C/C=C/COc2ccc(cc2)C[C@@H](C(=O)O)NC(=O)[C@H](Cc2ccc3ccccc3c2)NC(=O)[C@@H]2CN(CCN2C(=O)[C@@H](NC(=O)[C@H](C)NC)C(C)(C)C)C(=O)CNC(=O)CC[C@@H](C(=O)O)NC(=O)[C@H](Cc2ccc3ccccc3c2)NC1=O)C(C)(C)C` [Example 78], for which the IC50 is 82.4 nM at His-BIR3 (241-356, XIAP) and 4.7 nM in assay [1].
Consider `CN[C@@H](C)C(=O)N[C@H](C(=O)N1C[C@@H]2C[C@H]1C(=O)N[C@@H](Cc1ccc3ccccc3c1)C(=O)N[C@H](C(=O)O)Cc1ccc(cc1)OCc1cn(nn1)[C@H]1C[C@@H](C(=O)N[C@@H](Cc3ccc4ccccc4c3)C(=O)N[C@H](c3nnn[nH]3)Cc3ccc(cc3)OCCCCO2)N(C(=O)[C@@H](NC(=O)[C@H](C)NC)C(C)(C)C)C1)C(C)(C)C` [Example 128], for which the IC50 against His-BIR3 (241-356, XIAP) stood at 5.5 nM; in assay [1], 3.3 nM.
As to `CN[C@@H](C)C(=O)N[C@H](C(=O)N1C[C@H]2C/C=C/COc3ccc(cc3)C[C@@H](C(=O)O)NC(=O)[C@H](Cc3ccc4ccccc4c3)NC(=O)[C@@H]3C[C@@H](CN3C(=O)[C@@H](NC(=O)[C@H](C)NC)C(C)(C)C)NC(=O)c3ccc(cc3)C[C@@H](C(=O)O)NC(=O)C(Cc3ccc4ccccc4c3)NC(=O)[C@@H]1C2)C(C)(C)C` (stereo partly drawn) [Example 28], the IC50 came out at 3.5 nM against His-BIR3 (241-356, XIAP) and 1.1 nM in assay [1].
The matching figures for `CN[C@@H](C)C(=O)N[C@H](C(=O)N1C[C@@H]2C[C@H]1C(=O)N[C@@H](Cc1ccc3ccccc3c1)C(=O)N[C@H](C(=O)O)Cc1ccc(cc1)OC/C=C/C[C@H]1C[C@@H](C(=O)N[C@@H](Cc3ccc4ccccc4c3)C(=O)N[C@H](C(=O)NS(=O)(=O)C3CC3)Cc3ccc(cc3)OCc3cnnn32)N(C(=O)[C@@H](NC(=O)[C@H](C)NC)C(C)(C)C)C1)C(C)(C)C` [Example 102]: 10 nM and 35 nM.
With `CN[C@@H](C)C(=O)N[C@H](C(=O)N1C[C@@H]2C[C@H]1C(=O)N[C@@H](Cc1ccc3ccccc3c1)C(=O)N[C@H](C(=O)NS(=O)(=O)C1CC1)Cc1ccc(cc1)OCc1cn(nn1)[C@H]1C[C@@H](C(=O)N[C@@H](Cc3ccc4ccccc4c3)C(=O)N[C@H](C(=O)O)Cc3ccc(cc3)OC/C=C/CO2)N(C(=O)[C@@H](NC(=O)[C@H](C)NC)C(C)(C)C)C1)C1CCCCC1` [Example 108], the IC50 against His-BIR3 (241-356, XIAP) worked out at 90.3 nM; in assay [1] it was 7.8 nM.
On the same counts, the results for `CN[C@@H](C)C(=O)N[C@H](C(=O)N1C[C@@H]2C[C@H]1C(=O)NC(Cc1ccc3ccccc3c1)C(=O)N[C@H](C(=O)NS(=O)(=O)CCCO)Cc1ccc(cc1)OCCCC[C@H]1C[C@@H](C(=O)N[C@@H](Cc3ccc4ccccc4c3)C(=O)N[C@H](C(=O)O)Cc3ccc(cc3)OCc3cn2nn3)N(C(=O)[C@@H](NC(=O)[C@H](C)NC)C(C)(C)C)C1)C(C)(C)C` (stereo partly drawn) [Example 101] are 6.1 nM and 1 nM.
As for `CN[C@@H](C)C(=O)N[C@H](C(=O)N1C[C@@H]2C[C@H]1C(=O)NC(Cc1ccc3ccccc3c1)C(=O)N[C@H](C(=O)O)Cc1ccc(cc1)OCCCC[C@H]1C[C@@H](C(=O)N[C@@H](Cc3ccc4ccccc4c3)C(=O)N[C@H](c3nnn[nH]3)Cc3ccc(cc3)OCc3cn2nn3)N(C(=O)[C@@H](NC(=O)[C@H](C)NC)C(C)(C)C)C1)C(C)(C)C` (stereo partly drawn) [Example 99], the IC50 on His-BIR3 (241-356, XIAP) came out at 2.4 nM; in assay [1], 3.7 nM.
For the compound `CN[C@@H](C)C(=O)N[C@H](C(=O)N1C[C@@H]2C[C@H]1C(=O)N[C@@H](Cc1ccc3ccccc3c1)C(=O)N[C@H](C(=O)O)Cc1ccc(cc1)OC/C=C/CO[C@H]1C[C@@H](C(=O)N[C@@H](Cc3ccc(-c4ccccc4)cc3)C(=O)N[C@H](C(=O)O)Cc3ccc(cc3)C(=O)N2)N(C(=O)[C@@H](NC(=O)[C@H](C)NC)C(C)(C)C)C1)C(C)(C)C` [Example 48], the 50% inhibitory concentration (IC50) at His-BIR3 (241-356, XIAP) was found to be 17.6 nM; in assay [1], 2.6 nM.
On the same counts, the results for `CN[C@@H](C)C(=O)N[C@H](C(=O)N1C[C@H]2C/C=C/COc3ccc(cc3)C[C@@H](C(=O)NS(=O)(=O)C3CCCCC3)NC(=O)[C@H](Cc3ccc4ccccc4c3)NC(=O)[C@@H]3C[C@@H](CN3C(=O)[C@@H](NC(=O)[C@H](C)NC)C(C)(C)C)n3cc(nn3)COc3ccc(cc3)C[C@@H](C(=O)O)NC(=O)[C@H](Cc3ccc4ccccc4c3)NC(=O)[C@@H]1C2)C(C)(C)C` [Example 24] are 0.7 nM and 0.2 nM.
On the same counts, the results for `CN[C@@H](C)C(=O)N[C@H](C(=O)N1CC[C@H]2OC/C=C/COc3ccc(cc3)C[C@@H](C(=O)O)NC(=O)[C@H](Cc3ccc4ccccc4c3)NC(=O)[C@@H]3[C@@H](CCN3C(=O)[C@@H](NC(=O)[C@H](C)NC)C(C)(C)C)OCc3cn(nn3)[C@H](C(=O)O)CCNC(=O)[C@H](Cc3ccc4ccccc4c3)NC(=O)[C@H]21)C(C)(C)C` [Example 14] are 17 nM and 3.7 nM.
The matching figures for `CN[C@@H](C)C(=O)N[C@H](C(=O)N1C[C@@H]2C[C@H]1C(=O)N[C@@H](Cc1ccc3ccccc3c1)C(=O)N[C@H](C(=O)O)Cc1ccc(cc1)OC/C=C/CO[C@H]1C[C@@H](C(=O)N[C@@H](Cc3cccc(-c4cccnc4)c3)C(=O)N[C@H](C(=O)NS(=O)(=O)C3CC3)Cc3ccc(cc3)OCc3cn2nn3)N(C(=O)[C@@H](NC(=O)[C@H](C)NC)C(C)(C)C)C1)C(C)(C)C` [Example 116]: 30.8 nM and 20.1 nM.
